Laboratory results taken from patent US6599918B2, “Substituted (aminoiminomethyl or aminomethyl) dihydrobenzofurans and benzopyrans” (Aventis Pharmaceuticals Inc., priority 1999, dated 2003).
Where a name gives a salt, the structure may show the parent alone. Where no end group is shown, it is not given here.

What was measured:
[1] = test system: neointimal proliferation after vascular injury; details: rabbit carotid artery air-drying injury; cited from earlier work
[2] = test system: human cultured vascular smooth muscle cells; details: cited from earlier work
[3] = test system: rat cultured vascular smooth muscle cells; details: cited from earlier work

Row | Compound | melting point [°C] | also measured
1 | CC(=N)N1CC[C@H](Oc2ccc([C@H](Cc3ccc4ccc(C(=N)N)cc4c3)C(=O)O)cc2)C1 [DX-9065a] |  | neointimal proliferation [1]: less neointimal proliferation
2 | N=C(N)c1ccc2c(c1)C(CCNC(=O)c1ccc(-c3ccccn3)s1)CO2 (stereo not shown) [Example 1a, 5-(Pyridin-2-yl)-thiophene-2-carboxylic acid (2-[5-carbamimidoyl-2,3-dihydrobenzofuran-3-yl]ethyl)amide] | 54 to 56 | 
3 | TAP: TAP, cited as example that the mitogenic effect of Factor Xa depends on Factor Xa enzymatic activity (YNRLCIKPRDWIDECDSNEGGERAYFRNGKGGCDSFWICPEDHTGADYYSSYRDCFNACI; ends and bridges not checked; cysteine pairing not given here; UniProt P17726 1-60, looked up) |  | mitogenesis of cultured vascular smooth muscle cells [2]: inhibited the mitogenesis; mitogenesis of cultured vascular smooth muscle cells [3]: inhibited the mitogenesis

More lines, main results first:

Row | melting point [°C] | Compound | also measured
4 | 167 to 169 | CC(C)(C)c1ccc(C(=O)NCCC2COc3ccc(C(=N)N)cc32)cc1 (stereo not shown) (as salt: salt) [Example 1b, 4-tert-Butyl-N-(2-[5-carbamimidoyl-2,3-dihydrobenzofuran-3-yl]ethyl)benzamide] | 
5 | 209 to 210 | CC(C)(CN)c1ccc(C(=O)NCCC2COc3ccc(C(=N)N)cc32)cc1 (stereo not shown) (as salt: salt) [Example 1c, 4-(2-Amino-1,1-dimethylethyl)-N-(2-[5-carbamimidoyl-2,3-dihydrobenzofuran-3-yl]ethyl)benzamide] | 
6 | 52 to 56 | CCC(C)(C)c1ccc(S(=O)(=O)NCCC2COc3ccc(C(=N)N)cc32)cc1 (stereo not shown) [Example 1aar, 3-{2-[4-(1,1-Dimethylpropyl)benzenesulfonylamino]ethyl}-5-carbamimidoyl-2,3-dihydrobenzofuran] | 
